Measurements: ChEMBL document CHEMBL1138755, “A peptide nucleic acid-neamine conjugate that targets and cleaves HIV-1 TAR RNA inhibits viral replication” (J Med Chem, 2004)

System: Human immunodeficiency virus 1
Assay: Ability of the conjugate to block HIV-1 production when supplemented in a culture medium; NI= No inhibition of the HIV-1 replication even at concentration >5 uM
Format: functional, organism-based

## NC[C@H]1O[C@H](O[C@H]2[C@H](O)[C@@H](O)[C@H](N)C[C@@H]2N)[C@H](N)[C@@H](O)[C@@H]1O
  inhibition: No inhibition
